Data as given in patent US20150050235A1, “COMPOSITION FOR ATTRACTING MALE BLUEBERRY SPANWORM MOTH” (Her Majesty the Queen in Right of Canada, as represented by …, priority 2013, published 2015).

Legend:
[1] = tested on: male I. argillacearia moths; assay: Field experiment no. 1: captures of male moths in baited Delta traps; type: in vivo, Itame argillacearia; conditions: 50 μg per constituent, rubber septa in Delta traps, n=10
Procedure: Field Experiments. Two field experiments were conducted during the moth flight season in 2012. Traps were deployed in vegetative lowbush blueberry fields located in Farmington (field experiment no. 1) and Debert (field experiment no. 2), Nova Scotia. Lowbush blueberries are typically produced on a biennial cycle. After harvest, plants are pruned and enter a year-long vegetative phase.
In both field experiments, traps were arranged in a randomized complete block design with ten replicates in the first experiment and six replicates in the second field experiment. Counts of male moths in traps were done twice per week. Trap data were log10 (x+1) transformed to satisfy assumptions of normality and equal variance and were analyzed by ANOVA using Proc Mixed (SAS, 2001). Where significant differences were detected, Fisher's least significant difference (LSD) was used for multiple mean comparisons among treatments.
The first experiment attempted to clarify: (1) whether enantiomers of the tested epoxide compound differed in the ability to attract male I. argillacearia moths; and (2) whether a mixture of the tested epoxide and triene compounds was more attractive to male moths than each constituent alone.
Rubber septa (Wheaton, N.J., USA) loaded with treatments were placed within Delta® traps (Contech, Delta, British Columbia) with sticky inserts to capture moths. Traps were placed approximately 20 m apart (Cantelo et al., 1982; Hillier, 2001; Hillier et al., 2002), and suspended from iron stakes just above the blueberry canopy. The experiment had seven treatments.
Virgin female moths were held in 25 ml plastic Solo™ cups (TRA Cash and Carry, Truro, NS, Canada) perforated with approximately 20 5-mm holes. Traps were in the field from 9-26 Jul. 2012 and were emptied or replaced twice per week during this period.

Itame brunneata = conditions: without (Z,Z,Z)-3,6,9-17:H in the mixture; cited from earlier work

SMILES | captures of male moths in traps (in words) [1] | capture of moths (Itame brunneata)
CCCCCCC/C=C\C/C=C\C[C@@H]1O[C@@H]1CC (relative stereo) [3R,4S-epoxy-(Z,Z)-6,9-17:H, Z,Z-(3R,4S)-cis-3,4-epoxy-6,9-heptadecadiene] | a significant number of moths were found | captured
CCCCCCC/C=C\C/C=C\C[C@H]1O[C@H]1CC [3S,4R-epoxy-(Z,Z)-6,9-17:H, Z,Z-(3S,4R)-3,4-epoxy-6,9-heptadecadiene] | lack of captured moths | –
CC/C=C\C/C=C\C/C=C\CCCCCCC [(Z,Z,Z)-3,6,9-17:H, Z,Z,Z-3,6,9-heptadecatriene] | Very few moths were recovered | –
